Test results as given in patent publication US10584115B2, “Substituted pyridine and pyrazine BMI-1 inhibitors” (PTC Therapeutics, Inc., priority 2013, dated 2020).
Where two headings read alike, the source gives them in different places.

Assays:
Bmi-1 protein = experiment: Sandwich ELISA Assay (Bmi-1 protein level in HT-1080 cells after compound treatment); format: cell-based
Outline: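 Sandwich ELISA quantified Bmi-1 protein against recombinant standard (125–8000 pg/mL), with lysates captured overnight at 4 °C and signal by HRP/TMB at 450 nm (570 nm reference). Lysates came from HT-1080 cells incubated 40–48 h with test compounds in 0.5% DMSO.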

[1] = Table 1, Bmi-1 sandwich ELISA, read-out: ELISA EC50 value for Bmi-1 protein

**Q.** Which melting point does the source give for `Fc1ccc2nc(C(F)F)c(-c3cncc(Nc4ccc(OC(F)F)cc4)n3)n2c1` [compound 473, N-[4-(difluoromethoxy)phenyl]-6-[2-(difluoromethyl)-6-fluoroimidazo[1,2-a]pyridin-3-yl]pyrazin-2-amine] here?
**A.** 167 to 169 °C

**Q.** And the EC50 (Bmi-1 protein; [1])?
**A.** < 0.001 µM

**Q.** For `N#Cc1cc(Nc2ccc(C(F)(F)F)cc2)nc(-n2c(C3CC3)nc3c(F)cc(F)cc32)c1` [compound 474, 2-(2-cyclopropyl-4,6-difluoro-1H-benzimidazol-1-yl)-6-{[4-(trifluoromethyl)phenyl]amino}pyridine-4-carbonitrile], which melting point is on record?
**A.** 233 to 235 °C

**Q.** And the EC50 (Bmi-1 protein; [1])?
**A.** 0.01 to 0.1 µM

**Q.** With `N#Cc1cc(Nc2ccc(OC(F)F)cc2)nc(-n2c(C3CC3)nc3c(F)cc(F)cc32)c1` [compound 475, 2-(2-cyclopropyl-4,6-difluoro-1H-benzimidazol-1-yl)-6-{[4-(difluoromethoxy)phenyl]amino}pyridine-4-carbonitrile] as the molecule, how does the melting point read?
**A.** 168 to 170 °C

**Q.** And the EC50 (Bmi-1 protein; [1])?
**A.** 0.01 to 0.1 µM

**Q.** What does the source list for `N#Cc1cc(Nc2ccc(OC(F)F)nc2)nc(-n2c(C3CC3)nc3c(F)cc(F)cc32)c1` [compound 478, 2-(2-cyclopropyl-4,6-difluoro-1H-benzimidazol-1-yl)-6-{[6-(difluoromethoxy)pyridin-3-yl]amino}pyridine-4-carbonitrile]?
**A.** melting point: 207 to 209 °C; EC50 (Bmi-1 protein; [1]): 0.01 to 0.1 µM

**Q.** With `Fc1ccc2nc(C(F)F)c(-c3cncc(Nc4ccc(OC(F)F)nc4)n3)n2c1` [compound 479, N-[6-(difluoromethoxy)pyridin-3-yl]-6-[2-(difluoromethyl)-6-fluoroimidazo[1,2-a]pyridin-3-yl]pyrazin-2-amine] as the molecule, how does the melting point read?
**A.** 225 to 227 °C

**Q.** What about the EC50 (Bmi-1 protein; [1]) of the same molecule?
**A.** 0.001 to 0.01 µM

**Q.** What does the source list for `Cc1nc2ccc(F)cn2c1-c1cncc(Nc2ccc(OC(F)F)nc2)n1` [compound 480, N-[6-(difluoromethoxy)pyridin-3-yl]-6-(6-fluoro-2-methylimidazo[1,2-a]pyridin-3-yl)pyrazin-2-amine]?
**A.** melting point: 204 to 207 °C; EC50 (Bmi-1 protein; [1]): 0.1 to 3 µM

**Q.** Which melting point does the source give for `FC(F)c1nc2ccccc2n1-c1cncc(Nc2ccc(C(F)(F)F)cc2)n1` [compound 481, 6-[2-(difluoromethyl)-1H-benzimidazol-1-yl]-N-[4-(trifluoromethyl)phenyl]pyrazin-2-amine] here?
**A.** 229 to 231 °C

**Q.** What about the EC50 (Bmi-1 protein; [1]) of the same molecule?
**A.** 0.01 to 0.1 µM

**Q.** Which results are given for `FC(F)Oc1ccc(Nc2cncc(-n3c(C(F)F)nc4ccccc43)n2)cc1` [compound 482, N-[4-(difluoromethoxy)phenyl]-6-[2-(difluoromethyl)-1H-benzimidazol-1-yl]pyrazin-2-amine]?
**A.** melting point: 213 to 216 °C; EC50 (Bmi-1 protein; [1]): 0.01 to 0.1 µM

**Q.** For `Fc1cc(Nc2cncc(-n3c(C(F)F)nc4ccccc43)n2)ccc1OC(F)F` [compound 483, N-[4-(difluoromethoxy)-3-fluorophenyl]-6-[2-(difluoromethyl)-1H-benzimidazol-1-yl]pyrazin-2-amine], which melting point is on record?
**A.** 220 to 222 °C

**Q.** And the EC50 (Bmi-1 protein; [1])?
**A.** 0.01 to 0.1 µM

**Q.** Which melting point does the source give for `N#Cc1cc(Nc2ccc(C(F)(F)F)cc2)nc(-n2c(C(F)F)nc3ccccc32)c1` [compound 484, 2-[2-(difluoromethyl)-1H-benzimidazol-1-yl]-6-{[4-(trifluoromethyl)phenyl]amino}pyridine-4-carbonitrile] here?
**A.** 225 to 227 °C

**Q.** What about the EC50 (Bmi-1 protein; [1]) of the same molecule?
**A.** 0.01 to 0.1 µM

**Q.** For `Fc1ccc2nc(C3CCC3)n(-c3cncc(Nc4ccc(C(F)(F)F)cc4)n3)c2c1` [compound 485, 6-(2-cyclobutyl-6-fluoro-1H-benzimidazol-1-yl)-N-[4-(trifluoromethyl)phenyl]pyrazin-2-amine], which melting point is on record?
**A.** 289 to 291 °C

**Q.** And the EC50 (Bmi-1 protein; [1])?
**A.** 0.1 to 3 µM

**Q.** For `Fc1ccc2nc(C(F)F)n(-c3cncc(Nc4ccc(C(F)(F)F)cc4)n3)c2c1` [compound 486, 6-[2-(difluoromethyl)-6-fluoro-1H-benzimidazol-1-yl]-N-[4-(trifluoromethyl)phenyl]pyrazin-2-amine], which melting point is on record?
**A.** 197 to 199 °C

**Q.** What about the EC50 (Bmi-1 protein; [1]) of the same molecule?
**A.** 0.01 to 0.1 µM

**Q.** What does the source list for `Cc1cn2c(-c3cc(C#N)cc(Nc4ccc(C(F)(F)F)cc4)n3)c(C)nc2c(C)n1` [compound 487, 2-{[4-(trifluoromethyl)phenyl]amino}-6-(2,6,8-trimethylimidazo[1,2-a]pyrazin-3-yl)pyridine-4-carbonitrile]?
**A.** melting point: 237 to 238 °C; EC50 (Bmi-1 protein; [1]): 0.01 to 0.1 µM

**Q.** Which melting point does the source give for `Cc1cn2c(-c3cncc(Nc4ccc(C(F)(F)F)cc4)n3)c(C)nc2c(C)n1` [compound 488, N-[4-(trifluoromethyl)phenyl]-6-(2,6,8-trimethylimidazo-[1,2-a]pyrazin-3-yl)pyrazin2-amine] here?
**A.** 102 to 105 °C

**Q.** What about the EC50 (Bmi-1 protein; [1]) of the same molecule?
**A.** 0.01 to 0.1 µM

**Q.** Which results are given for `Cc1cn2c(-c3cncc(Nc4ccc(OC(F)F)cc4)n3)c(C)nc2c(C)n1` [compound 489, N-[4-(difluoromethoxy)phenyl]-6-(2,6,8-trimethylimidazo[1,2-a]pyrazin-3-yl)pyrazin-2-amine]?
**A.** melting point: 140 to 141 °C; EC50 (Bmi-1 protein; [1]): 0.001 to 0.01 µM

**Q.** For `Cc1cn2c(-c3cc(C#N)cc(Nc4ccc(C(F)(F)F)cc4)n3)c(C3CC3)nc2c(C)n1` [compound 491, 2-(2-cyclopropyl-6,8-dimethylimidazo[1,2-a]pyrazin-3-yl)-6-{[4-(trifluoromethyl)phenyl]amino}pyridine-4-carbonitrile], which melting point is on record?
**A.** 150 to 152 °C

**Q.** What about the EC50 (Bmi-1 protein; [1]) of the same molecule?
**A.** 0.1 to 3 µM

**Q.** Which results are given for `Cc1nc2cc(F)c(F)cc2n1-c1cncc(Nc2ccc(C(F)F)cc2)n1` [compound 501, 6-(5,6-difluoro-2-methyl-1H-benzimidazol-1-yl)-N-[4-(difluoromethyl)phenyl]pyrazin-2-amine]?
**A.** melting point: 209 to 211 °C; EC50 (Bmi-1 protein; [1]): 0.01 to 0.1 µM

**Q.** Which results are given for `Fc1ccn2nc(C3CC3)c(-c3cncc(Nc4ccc(C(F)(F)F)cc4)n3)c2c1` [compound 535, 6-(2-cyclopropyl-5-fluoropyrazolo[1,5-a]pyridin-3-yl)-N-[4-(trifluoromethyl)phenyl]pyrazin-2-amine]?
**A.** melting point: 122 to 125 °C; EC50 (Bmi-1 protein; [1]): 0.01 to 0.1 µM

**Q.** Which melting point does the source give for `[O-][n+]1cc(Nc2ccc(C(F)(F)F)cc2)nc(-c2c(C3CC3)nn3ccc(F)cc23)c1` [compound 536, 6-(2-cyclopropyl-5-fluoropyrazolo[1,5-a]pyridin-3-yl)-N-[4-(trifluoromethyl)phenyl]pyrazin-2-amine 4-oxide] here?
**A.** 183 to 186 °C

**Q.** And the EC50 (Bmi-1 protein; [1])?
**A.** 0.01 to 0.1 µM

**Q.** What does the source list for `CCc1nn2ccc(F)cc2c1-c1cncc(Nc2ccc(C(F)(F)F)cc2)n1` [compound 551, 6-(2-ethyl-5-fluoropyrazolo[1,5-a]pyridin-3-yl)-N-[4-(trifluoromethyl)phenyl]pyrazin-2-amine]?
**A.** melting point: 129 to 131 °C; EC50 (Bmi-1 protein; [1]): 0.1 to 3 µM

**Q.** What does the source list for `COc1ccc(Nc2cncc(-n3c(C)nc4ccc(F)cc43)n2)cc1` [compound 552, 6-(6-fluoro-2-methyl-1H-benzimidazol-1-yl)-N-(4-methoxyphenyl)pyrazin-2-amine]?
**A.** melting point: 184 to 186 °C; EC50 (Bmi-1 protein; [1]): < 0.001 µM

**Q.** With `Cc1nc2ccc(F)cc2n1-c1cncc(Nc2ccc(C#N)cc2)n1` [compound 555, 4-{[6-(6-fluoro-2-methyl-1H-benzimidazol-1-yl)pyrazin-2-yl]amino}benzonitrile] as the molecule, how does the melting point read?
**A.** 300 to 303 °C

**Q.** And the EC50 (Bmi-1 protein; [1])?
**A.** 0.1 to 3 µM

**Q.** For `COC(=O)c1ccc(Nc2cncc(-n3c(C)nc4ccc(F)cc43)n2)cc1` [compound 556, methyl 4-{[6-(6-fluoro-2-methyl-1H-benzimidazol-1-yl)pyrazin-2-yl]amino}benzoate], which melting point is on record?
**A.** 198 to 200 °C

**Q.** What about the EC50 (Bmi-1 protein; [1]) of the same molecule?
**A.** 0.01 to 0.1 µM

**Q.** Which melting point does the source give for `Cc1nc2ccc(F)cc2n1-c1cncc(Nc2ccc(N)cc2)n1` [compound 558, N-[6-(6-fluoro-2-methyl-1H-benzimidazol-1-yl)pyrazin-2-yl]benzene-1,4-diamine] here?
**A.** 189 to 191 °C

**Q.** And the EC50 (Bmi-1 protein; [1])?
**A.** 0.01 to 0.1 µM

**Q.** With `Cc1cccc(Nc2cncc(-n3c(C)nc4ccc(F)cc43)n2)c1` [compound 560, 6-(6-fluoro-2-methyl-1H-benzimidazol-1-yl)-N-(3-methylphenyl)pyrazin-2-amine] as the molecule, how does the melting point read?
**A.** 173 to 174 °C

**Q.** And the EC50 (Bmi-1 protein; [1])?
**A.** 0.1 to 3 µM

**Q.** Which melting point does the source give for `Cc1nc2ccc(F)cn2c1-c1cncc(Nc2ccccc2)n1` [compound 590, 6-(6-fluoro-2-methylimidazo[1,2-a]pyridin-3-yl)-N-phenylpyrazin-2-amine] here?
**A.** 216 to 218 °C

**Q.** And the EC50 (Bmi-1 protein; read-out: ELISA EC50 value for Bmi-1 protein, Table 1, Bmi-1 sandwich ELISA)?
**A.** 0.01 to 0.1 µM

**Q.** With `Cc1nc2ccc(F)cn2c1-c1cncc(Nc2ccc(F)cc2)n1` [compound 591, 6-(6-fluoro-2-methylimidazo[1,2-a]pyridin-3-yl)-N-(4-fluorophenyl)pyrazin-2-amine] as the molecule, how does the melting point read?
**A.** 208 to 210 °C

**Q.** What about the EC50 (Bmi-1 protein; [1]) of the same molecule?
**A.** 0.1 to 3 µM

**Q.** What does the source list for `Cc1nc2ccc(F)cn2c1-c1cncc(Nc2ccc(Cl)cc2)n1` [compound 593, N-(4-chlorophenyl)-6-(6-fluoro-2-methylimidazo[1,2-a]pyridin-3-yl)pyrazin-2-amine]?
**A.** melting point: 215 to 218 °C; EC50 (Bmi-1 protein; [1]): 0.001 to 0.01 µM

**Q.** For `Cc1nc2ccc(F)cn2c1-c1cncc(Nc2cccc(C(F)(F)F)c2)n1` [compound 594, 6-(6-fluoro-2-methylimidazo[1,2-a]pyridin-3-yl)-N-[3-(trifluoromethyl)phenyl]pyrazin-2-amine], which melting point is on record?
**A.** 188 to 190 °C

**Q.** And the EC50 (Bmi-1 protein; [1])?
**A.** 0.1 to 3 µM

**Q.** For `Cc1nc2ccc(F)cn2c1-c1cncc(Nc2cccc(F)c2)n1` [compound 595, 6-(6-fluoro-2-methylimidazo[1,2-a]pyridin-3-yl)-N-(3-fluorophenyl)pyrazin-2-amine], which melting point is on record?
**A.** 270 to 273 °C

**Q.** What about the EC50 (Bmi-1 protein; [1]) of the same molecule?
**A.** 0.01 to 0.1 µM

**Q.** Which results are given for `COc1cccc(Nc2cncc(-c3c(C)nc4ccc(F)cn34)n2)c1` [compound 596, 6-(6-fluoro-2-methylimidazo[1,2-a]pyridin-3-yl)-N-(3-methoxyphenyl)pyrazin-2-amine]?
**A.** melting point: 270 to 273 °C; EC50 (Bmi-1 protein; [1]): 0.001 to 0.01 µM

**Q.** Which results are given for `Cc1nc2ccc(F)cn2c1-c1cncc(Nc2cccc(Cl)c2)n1` [compound 597, N-(3-chlorophenyl)-6-(6-fluoro-2-methylimidazo[1,2-a]pyridin-3-yl)pyrazin-2-amine]?
**A.** melting point: 272 to 275 °C; EC50 (Bmi-1 protein; [1]): 0.01 to 0.1 µM
